Earlier results as cited in patent US20220000750A1, “THE PROCESS FOR THE PREPARATION AND USE OF HAIR TREATMENT COMPOSITIONS CONTAINING ORGANIC C1-C6 ALKOXY SILANES” (Henkel AG & Co. KGaA, priority 2019, published 2022).

Details: 25° C.

Row | Structure (SMILES) | solubility in water | solubility in water (in words)
1 | CCN(Cc1cccc(S(=O)(=O)[O-])c1)c1ccc(C(=C2C=CC(=[N+](CC)Cc3cccc(S(=O)(=O)[O-])c3)C=C2)c2ccccc2S(=O)(=O)[O-])cc1.[Na+].[Na+] [Acid Blue 9] | more than 20 % by weight | –
2 | O=S(=O)([O-])c1ccc(N=Nc2c(O)ccc3ccccc23)cc1.[Na+] [Acid Orange 7, sodium salt of 4-[(2-hydroxy-1-naphthyl)azo]benzene sulphonate] | more than 7 g/L | –
3 | Nc1cc(S(=O)(=O)[O-])cc2cc(S(=O)(=O)[O-])c(N=Nc3ccccc3)c(O)c12.[Na+].[Na+] [Acid Red 33, diantrium salt of 5-amino-4-hydroxy-3-(phenylazo)-naphthalene-2,7-disulphonate] | 2500 µg/mL | –
4 | O=C([O-])c1c(Cl)c(Cl)c(Cl)c(Cl)c1-c1c2c(Br)cc(=O)c(Br)c-2oc2c(Br)c(O)cc(Br)c12.O=C([O-])c1c(Cl)c(Cl)c(Cl)c(Cl)c1-c1c2c(Br)cc(=O)c(Br)c-2oc2c(Br)c(O)cc(Br)c12.[Na+].[Na+] [Acid Red 92, disodium salt of 3,4,5,6-tetrachloro-2-(1,4,5,8-tetrabromo-6-hydroxy-3-oxoxanthen-9-yl)benzoic acid] | greater than 10 g/L | –
5 | O=C([O-])C1=NN(c2ccc(S(=O)(=O)[O-])cc2)C(=O)C1N=Nc1ccc(S(=O)(=O)[O-])cc1.[Na+].[Na+].[Na+] (centres unmarked) [Acid Yellow 23, trisodium salt of 4,5-dihydro-5-oxo-1-(4-sulfophenyl)-4-((4-sulfophenyl)azo)-1H-pyrazole-3-carboxylic acid] | – | highly soluble
